Results published in US20200188382A1, “PHARMACEUTICAL COMPOSITION FOR INDUCING PROGRAMMED CELL DEATH IN CANCER CELLS” (KYOTO UNIVERSITY, priority 2016, published 2020).

How the values were obtained:
Assay type in all cases: cell-based
[1] = tested on: Human cervical cancer cell line HeLa; test: Induction of production of NO in cancer cells (DAF-FM DA, flow cytometry); conditions: 10 μM, 10 hours at 37° C., MEM (No Glucose) containing 0.1% Galactose and 5% FBS, FIG. 1
Procedure: The amount of nitric oxide (NO) produced in cancer cells was measured using a nitric oxide detection indicator. Specifically, Compound 1 prepared as described above was added to cancer cells that were to be cultured under the following conditions such that the concentration of Compound 1 was 10 μM, and the cancer cells were cultured for 10 hours, then flow cytometry was performed while the NO detection indicator was in contact therewith, and fluorescence intensity and cell number distribution were measured.
(§1) Cancer cells: Human cervical cancer cell line HeLa
(§2) Nutrient sources of culture medium: MEM (No Glucose) containing 0.1% Galactose and 5% FBS
Culture time after Compound 1 or DMSO was added: 10 hours at 37° C.
Nitric oxide detection indicator: Diaminofluorescein-FM diacetate (DAF-FM DA)

[2] = tested on: Human cervical cancer cell line HeLa; test: Antitumor activity: number of living cells by CFSE-DA staining and WST-8 assay; conditions: 5, 10, or 20 μM, 4 days at 37° C., MEM containing 5% FBS, CFSE-DA and WST-8, FIGS. 2 and 3
Procedure: The antitumor effect on cancer cells was confirmed through measurement of the number of living cells using two methods.
Specifically, Compound 1 prepared as described above was added to cancer cells that were to be cultured under the following conditions such that the concentration of Compound 1 was 5, 10, or 20 μM, cancer cells were cultured for 4 days, and then an effect of Compound 1 on cancer cells was confirmed through fluorescence staining of living cells using CFSE-DA (FIG. 2) and WST-8 assays (FIG. 3).
as §1
Nutrient sources of culture medium: MEM containing 5% FBS
Culture time after Compound 1 or DMSO was added: 4 days at 37° C.
CFSE: 5- or 6-(N-Succinimidyloxycarbonyl)fluorescein 3′,6′-diacetate

[3] = tested on: Human cervical cancer cell line HeLa; test: NO dependency of caspase 3 activation (NO scavenger / NO synthesis inhibitor), flow cytometry; conditions: FIG. 5
Procedure: It was confirmed that the activity of Caspase-3 above was NO-dependent, using two types of methods in which an NO scavenger and an NO synthesis inhibitor were used.
That is, first, the NO scavenger (0.2 mM) or NO synthesis inhibitor (4 mM) described above was added to cancer cells that were to be cultured under the following conditions, and the cancer cells were cultured for 1 hour, Compound 1 prepared as described above was added thereto such that the concentration of Compound 1 was 10 μM, the cancer cells were cultured for 15 hours, flow cytometry was then performed while a caspase 3 substrate and a membrane impermeable DNA stain were in contact therewith, and thus two-color dot plots were created.
as §1, §2
Culture time after NO scavenger and NO synthesis inhibitor were added: 1 hour at 37° C.
NO scavenger: Carboxy-PTIO (cPTIO)
NO synthesis inhibitor: L-NAME (NO synthatase inhibitor)
Culture time after Compound 1 or DMSO was added: 15 hours
Caspase 3 substrate: NucView (trademark, Biotium) 488
Membrane impermeable DNA stain: DRAQ7 (trademark, BioStatus)

[4] = tested on: Human cervical cancer cell line HeLa; test: Programmed cell death under glucose starvation, WST-8 assay; conditions: 16 hours at 37° C., MEM with 0.1% Glucose or 0.1% Galactose (No Glucose) and 5% FBS, FIG. 6
Procedure: It was confirmed that programmed cell death of cancer cells by Compound 1 was facilitated under glucose starvation.
Specifically, the nutrient source of a culture medium used when Compound 1 was applied to cancer cells was set to either glucose (Glc) or galactose (Gal), cancer cells were cultured for 16 hours, and the survival rate of cancer cells was measured using WST-8 assays.
as §1
Culture medium before Compound 1 was added: MEM containing 10% FBS
Culture medium after Compound 1 was added: MEM containing 0.1% Glucose and 5% FBS, or containing 0.1% Galactose and 5% FBS (No Glucose)
Culture time after Compound 1 was added: 16 hours at 37° C.

[5] = tested on: a plurality of cancer cell lines; test: Antitumor effect on a plurality of cancer cell lines

Compound: O=S(=O)(Nc1cc(C(F)(F)F)ccc1N1CC[C@@H]2CCCC[C@H]2C1)c1ccc(F)cc1 [Compound 1]
- production of NO in cells [1]: enhanced
- antitumor effect (survival rate of cancer cells) [2]: antitumor effect of reducing the survival rate of cancer cells
- NO dependency of induced programmed cell death ([3]; 10 μM, cPTIO or L-NAME): NO-dependent
- ratio of cells with DRAQ7 negative and NucView 488 positive ([3]; Compound 1 at 10 μM alone, 15 hours, no glucose/0.1% Galactose, control 7.8%): 36.1%
- ratio of cells with DRAQ7 negative and NucView 488 positive under the presence of cPTIO ([3]; Compound 1 at 10 μM, 15 hours, after 1 hour with NO scavenger cPTIO 0.2 mM): 13.9%
- ratio of cells with DRAQ7 negative and NucView 488 positive under the presence of L-NAME ([3]; Compound 1 at 10 μM, 15 hours, after 1 hour with NO synthesis inhibitor L-NAME 4 mM): 22.7%
- programmed cell death (survival rate) in glucose vs galactose medium [4]: facilitated in a glucose depleted state
- antitumor effect [5]: exhibited an antitumor effect on a plurality of cancer cell lines
